{
  "source": "patent US20230125487A1",
  "about": "“COMPOSITION FOR TREATING OR PREVENTING INFLAMMATORY BOWEL DISEASE” (FUGENBIO CO., LTD., priority 2019, published 2023)",
  "key": {"[1]": {"test_system": "free radicals and NO formation", "conditions": "disclosed in Cheng et al., Biochemical Pharmacology, 2001, Vol. 61, 939-946; cited from earlier work"}, "iNOS": {"test_system": "iNOS", "experiment": "iNOS mRNA expression in LPS-stimulated RAW 264.7 macrophages", "assay_type": "cell-based", "conditions": "0.1 μg/mL E. coli-derived LPS, 25 μM compound, FIGS. 3a and 3b", "description": "(§1) RAW 264.7 macrophages were treated with 0.1 μg/mL of E. coli-derived LPS and 25 μM of Compounds A1 to A6, B1 to B6, or C1 to C6, respectively. Then, the mRNA expression level of the inflammatory cytokine TNFα was observed through RT-PCR.\n(§2) FIGS. 2a and 2b show the result of representing the mRNA expression level of COX2. FIGS. 3a and 3b show the result of representing the mRNA expression level of iNOS."}, "nitric oxide (NO)": {"test_system": "nitric oxide (NO)", "experiment": "NO level in LPS-stimulated RAW 264.7 macrophages", "assay_type": "cell-based", "conditions": "0.1 μg/mL E. coli-derived LPS, 25 μM compound, FIGS. 7a and 7b", "description": "as §1\nNitric oxide (NO), which is increased by LPS stimulation in RAW 264.7 macrophages, is one of the causes of inflammatory bowel disease along with inflammatory cytokines. Therefore, in Experimental Example 3, it was confirmed in the same manner as in Experimental Example 1 whether NO produced by LPS stimulation could be reduced by the compound according to the present invention.\nFIGS. 7a and 7b show the results of observing NO concentration (μM)."}, "MCP1": {"test_system": "MCP1", "experiment": "MCP1 mRNA expression in LPS-stimulated RAW 264.7 macrophages", "assay_type": "cell-based", "conditions": "0.1 μg/mL E. coli-derived LPS, 25 μM compound, FIG. 6"}, "IL-1β": {"test_system": "IL-1β", "experiment": "IL-1β mRNA expression in LPS-stimulated RAW 264.7 macrophages", "assay_type": "cell-based", "conditions": "0.1 μg/mL E. coli-derived LPS, 25 μM compound, FIG. 5"}, "IL-1α": {"test_system": "IL-1α", "experiment": "IL-1α mRNA expression in LPS-stimulated RAW 264.7 macrophages", "assay_type": "cell-based", "conditions": "0.1 μg/mL E. coli-derived LPS, 25 μM compound, FIG. 4"}, "TNFα": {"test_system": "TNFα", "experiment": "TNFα mRNA expression in LPS-stimulated RAW 264.7 macrophages (RT-PCR)", "assay_type": "cell-based", "conditions": "0.1 μg/mL E. coli-derived LPS, 25 μM compound, FIGS. 1a to 1c", "description": "as §1"}, "COX2": {"test_system": "COX2", "experiment": "COX2 mRNA expression in LPS-stimulated RAW 264.7 macrophages", "assay_type": "cell-based", "conditions": "0.1 μg/mL E. coli-derived LPS, 25 μM compound, FIGS. 2a and 2b", "description": "as §1, §2"}},
  "data": [
    {"smiles": "CC(C)=CCc1cc(C(=O)/C=C/c2ccc(O)c(O)c2)c(O)cc1O", "note": "[Compound A1, broussochalcone A]", "values": [
      {"measurement": "excessive free radicals and NO formation", "setting": "[1]", "result": "inhibits"},
      {"measurement": "mRNA expression level of iNOS", "setting": "iNOS", "result": "suppressed"},
      {"measurement": "NO level increased by LPS stimulation", "setting": "nitric oxide (NO)", "result": "suppressed"},
      {"measurement": "mRNA expression level of MCP1", "setting": "MCP1", "result": "suppressed"},
      {"measurement": "mRNA expression level of IL-1β", "setting": "IL-1β", "result": "suppressed"},
      {"measurement": "mRNA expression level of IL-1α", "setting": "IL-1α", "result": "suppressed"},
      {"measurement": "increase in the mRNA expression level of TNFα induced by LPS stimulation", "setting": "TNFα", "result": "suppressed"},
      {"measurement": "mRNA expression level of COX2", "setting": "COX2", "result": "suppressed"}
    ]}
  ]
}
